In general, Ki refers to the dissociation constant of the complex between target and ligand, obtained from inhibition or displacement.

The structures appear in SMILES notation. Like-named read-outs stand apart in the source and are kept apart here.

One assay deals with T1, rat A3 receptor (Rattus norvegicus, UniProt P28647).
T1 sequence (P28647 1-320): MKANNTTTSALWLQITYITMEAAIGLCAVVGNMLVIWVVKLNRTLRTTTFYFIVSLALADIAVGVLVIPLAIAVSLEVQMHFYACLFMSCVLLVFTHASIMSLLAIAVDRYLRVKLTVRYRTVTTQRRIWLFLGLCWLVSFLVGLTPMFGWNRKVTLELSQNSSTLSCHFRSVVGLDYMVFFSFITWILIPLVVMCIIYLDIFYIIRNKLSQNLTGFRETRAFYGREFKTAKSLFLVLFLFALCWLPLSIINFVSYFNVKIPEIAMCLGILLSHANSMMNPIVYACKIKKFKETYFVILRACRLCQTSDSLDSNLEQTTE
The assay can be described thus: Binding of [35S]GTP-γ-S to rat RBL-2H3 mast cell membranes. In kind it is biochemical. To be noted: FIG. 1, rat RBL-2H3 mast cell membranes. How it is done:
The binding for [^35 S]GTP-y-S (Ameersham, Chicago Ill., specific activity 1275 Ci/mmol) was carried out using rat RBL-2H3 mast cell membranes by the general method of Lorenzen et al.^47 Membranes were suspended in a buffer containing 50 mM Tris, 3 units/mL adenosine deaminase, 100 mM NaCl, and 10 mM MgCl2 (pH 7.4) and a protein concentration of 1 to 10 μg per tube. The membrane suspension was preincubated with […], R-PIA and/or riboflavin in a final volume of 125 μL buffer at 30° C. for 60 min and then transferred to ice for 20 min. [^35 S]GTP-γy-S was added to a final concentration of 0.1 nM in a total volume of 500 μL and the mixture was incubated for 30 min at 30° C. Non-specific binding was determined in the presence of 10 μM GTP-γ-S (Sigma, St. Louis Mo.). Incubation of the reaction mixture was terminated by filtration over a GF/B glass filter using a Brandell cell harvester and washed with the same buffer.
The assay involved the agonist-induced inhibition of binding of guanine nucleotide to rat RBL-2H3 mast cell membranes, which contain a high density of A3 receptors.

Assay [1] deals with T2, rat brain A2A adenosine receptor (Rattus norvegicus, UniProt P30543).
T2 construct: A2A receptors for rat striatal membranes; from tissue; host or cells: rat striatal membranes
As to the kind of experiment: Displacement of specific [3H]CGS 21680 binding in rat striatal membranes.
Protocol: For binding experients, membrane homogenates were frozen and stored at -20° C. for greater than 2 months. Adenosine deaminase (ADA) was purchased from Boehringer Mannheim (Indianapolis, Ind.).
(§1) Nonspecific binding was determined in the presence of 200 μM NECA. […] Additional deaminase was not added during incubation with the radioligand.

Assay [2] has as its target T3, rat A3 adenosine receptor (Rattus norvegicus, UniProt P28647).
T3 sequence (P28647 1-320): T1 sequence (P28647 1-320)
Protocol: (§2) Procedures for preparing rat brain membranes and Chinese hamster ovary (CHO) cell membranes were as reported^30, 38, 44. For binding experients, membrane homogenates were frozen and stored at -20° C. for greater than 2 months. Adenosine deaminase (ADA) was purchased from Boehringer Mannheim (Indianapolis, Ind.).
(§3) Inhibitors were routinely dissolved in DMSO. […] Incubations were carried out in duplicate for 1 h at 37° C., and were terminated by rapid filtration over Whatman GF/B filters using a Brandell cell harvester (Brandell, Gaithersburg, Md.). Tubes were washed three times with 3 mL of buffer. Radioactivity was determined in a Beckman gamma 5500B γ-counter.
as §1

The target of assay [3] is T4, rat brain A1 adenosine receptor (Rattus norvegicus, UniProt P25099).
T4 sequence (P25099 1-326): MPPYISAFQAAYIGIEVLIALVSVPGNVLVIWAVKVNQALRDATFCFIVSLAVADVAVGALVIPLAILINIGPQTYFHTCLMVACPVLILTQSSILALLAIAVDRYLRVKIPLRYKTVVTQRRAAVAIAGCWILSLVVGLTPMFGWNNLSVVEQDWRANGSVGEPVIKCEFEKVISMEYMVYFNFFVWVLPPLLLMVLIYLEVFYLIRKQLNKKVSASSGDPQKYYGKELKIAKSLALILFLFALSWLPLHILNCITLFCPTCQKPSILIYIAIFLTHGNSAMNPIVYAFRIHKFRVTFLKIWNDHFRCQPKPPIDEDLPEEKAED
Protocol: (§4) Procedures for preparing rat brain membranes and Chinese hamster ovary (CHO) cell membranes were as reported^30, 38, 44. For binding experients, membrane homogenates were frozen and stored at -20° C. for greater than 2 months.
as §1

Assay [4] has as its target T3, rat A3 adenosine receptor. The settings on record: for A1/A3: ratio of Ki (A1) to Ki (A3); for A1/A3 / A2A/A3: rat; for A2A/A3: ratio of Ki (A2A) to Ki (A3); for affinity and selectivity at A3 adenosine receptors: vs. A1 and A2 receptors.
Protocol: as §2, §3, §1
Assay [5] deals with T4, rat brain A1 adenosine receptor. As to the kind of experiment: Displacement of specific [3H]R-PIA binding in rat brain (cortical) membranes. To be noted: read-out: Ki (A1).
Protocol: as §4, §1
For assay [6] the target is unchanged. The assay can be described thus: biochemical.
Protocol: as §4, §1
In the next assay the test system is A3 receptor. The settings on record: background, cited from earlier work.
[7] abbreviates: rat striatal membranes, [3H]CGS 21680, Ki ± SEM, n = 3-6.
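Wherever A1/A3 is given: radioligand binding on membrane homogenates, 1 h incubation at 37 °C in duplicate, gamma counting of filter-bound radioactivity, nonspecific binding defined using 200 µM NECA.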
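Wherever A2A/A3 is given: radioligand binding on membrane homogenates, 1 h incubation at 37 °C in duplicate, gamma counting of filter-bound radioactivity, nonspecific binding defined using 200 µM NECA.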

T2 sequence (P30543 whole entry): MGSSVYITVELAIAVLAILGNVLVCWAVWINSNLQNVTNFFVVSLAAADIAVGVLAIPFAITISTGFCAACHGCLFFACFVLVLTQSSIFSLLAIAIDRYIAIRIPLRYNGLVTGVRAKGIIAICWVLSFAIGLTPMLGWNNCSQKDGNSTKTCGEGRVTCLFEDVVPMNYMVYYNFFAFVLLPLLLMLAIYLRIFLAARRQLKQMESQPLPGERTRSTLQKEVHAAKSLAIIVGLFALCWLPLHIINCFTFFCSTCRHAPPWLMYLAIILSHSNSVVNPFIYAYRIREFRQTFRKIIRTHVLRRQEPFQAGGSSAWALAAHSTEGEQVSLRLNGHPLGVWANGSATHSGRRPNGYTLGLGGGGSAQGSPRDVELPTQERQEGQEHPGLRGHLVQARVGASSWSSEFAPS

For the compound `CNC(=O)[C@H]1O[C@@H](n2cnc3c(NCc4cccc(I)c4)nc(Cl)nc32)[C@H](O)[C@@H]1O` [Cl-IB-MECA, 2-chloro-N^6-(3-iodobenzyl)adenosine-5'-N-methyluronamide, reference compound], at rat A3 receptor, the “effect on binding of [35S]GTP-γ-S” value was “increased binding of [^35 S]GTP-γ-S in a dose dependent manner”.
For `CCNC(=O)[C@H]1O[C@@H](n2cnc3c(NC(=O)c4ccc(-c5ccccc5)cc4)ncnc32)[C@H](O)[C@@H]1O` [Compound 3a], the results for the Ki in assay [1] (setting [7]), in assay [2] and in assay [3] were 3580 ± 850 nM, 979 ± 22 nM and 5.92 ± 1.04 nM, respectively. For the same compound, in assay [4], the A1/A3 stood at 0.006. Further, the A2A/A3 in assay [4] is 3.65.
Take `CCNC(=O)[C@H]1O[C@@H](n2cnc3c(NC(=O)Cc4ccc(Cl)cc4Cl)ncnc32)[C@H](O)[C@@H]1O` [Compound 3b, N^6-(2,4-dichlorobenzyl-carbonylamino)-adenosine-5'-N-ethyluronamide]: the Ki came out at 26.6 ± 8.8 nM in assay [1], 167 ± 7 nM in assay [2] and 16 ± 3.3 nM in assay [3]. The A1/A3 in assay [4] was 0.095. Further, the A2A/A3 in assay [4] is 0.16.
Turning to `CCNC(=O)[C@H]1O[C@@H](n2cnc3c(NC(=O)c4ccc(OC)cc4)ncnc32)[C@H](O)[C@@H]1O` [Compound 3c], the figures for the Ki in assay [1] (setting [7]), in assay [2] and in assay [3] were 237 ± 46 nM, 837 ± 142 nM and 86.4 ± 14.2 nM, respectively. The A1/A3 in assay [4] was determined as 0.10. In assay [4], the A2A/A3 was determined as 0.28.
For `CCNC(=O)[C@H]1O[C@@H](n2cnc3c(NNC(=O)c4ccc(Cl)cc4)ncnc32)[C@H](O)[C@@H]1O` [Compound 3d, N^6-(4-chlorophenyl-carbonylamino)-adenosine-5'-N-ethyluronamide], the values for the Ki in assay [1], in assay [5] and in assay [4] (read-out: Ki (A3)) were 1960 ± 300 nM, 1170 ± 220 nM and 754 ± 132 nM, respectively. Besides, in assay [4], the A1/A3 is 1.55. Moreover, the A2A/A3 in assay [4] worked out at 2.59.
As to `CCNC(=O)[C@H]1O[C@@H](n2cnc3c(NC(=O)c4ccccc4)ncnc32)[C@H](O)[C@@H]1O` [Compound 3e], the inhibition constant (Ki) was found to be 670 ± 211 nM in assay [1] (setting [7]), 824 ± 126 nM in assay [2] and 252 ± 52 nM in assay [3]. Besides, the A1/A3 in assay [4] was determined as 0.30. For the same compound, the A2A/A3 in assay [4] is reported as 0.81.
As for `CCNC(=O)[C@H]1O[C@@H](n2cnc3c(NC(=O)NCc4ccccc4)ncnc32)[C@H](O)[C@@H]1O` [Compound 3f, N^6-(benzylcarbamoylamino)-adenosine-5'-N-ethyluronamide], the Ki in assay [1] (setting [7]) was found to be 1790 ± 230 nM; in assay [2] it was 38.3 ± 6.4 nM; in assay [3], 171 ± 15 nM. Besides, the A1/A3 in assay [4] was determined as 4.46. Moreover, in assay [4], the A2A/A3 was 46.8.
In assay [1] (setting [7]), `CCNC(=O)[C@H]1O[C@@H](n2cnc3c(NC(=O)Nc4ccc(C(C)=O)cc4)ncnc32)[C@H](O)[C@@H]1O` [Compound 3h, N^6-(4-acetyl-phenylcarbamoyl)-adenosine-5'-N-ethyluronamide] showed a Ki of 1050 ± 270 nM. This compound had a Ki in assay [2] of 20.9 ± 7.51 nM. In assay [3], the inhibitory constant (Ki) came to 72.7 ± 11.8 nM. In assay [4], the Ki lay within 9.7 to 107 nM; the A1/A3 was 3.47; the A2A/A3 stood at 50.2; the “affinity and selectivity at A3 adenosine receptors” value (shortened to “affinity and selectivity”) was “relatively high affinity and selectivity at A3 adenosine receptors”.
`CCNC(=O)[C@H]1O[C@@H](n2cnc3c(NC(=O)N[C@H](C)c4ccccc4)ncnc32)[C@H](O)[C@@H]1O` [Compound 3i, N^6-((R)-α-phenylethylcarbamoyl)-adenosine-5'-N-ethyluronamide]: the Ki in assay [1] (setting [7]) was 279 ± 171 nM; in assay [2], 16.3 ± 3.7 nM; in assay [3], 433 ± 171 nM. In assay [4], the A1/A3 is 26.5. Besides, the A2A/A3 in assay [4] turned out to be 17.1.
As to `CCNC(=O)[C@H]1O[C@@H](n2cnc3c(NC(=O)N[C@@H](C)c4ccccc4)ncnc32)[C@H](O)[C@@H]1O` [Compound 3j, N^6-((S)-α-phenylethylcarbamoyl)-adenosine-5'-N-ethyluronamide], the inhibitory constant (Ki) in assay [1] (setting [7]) is 2970 ± 930 nM; in assay [2], 319 ± 134 nM; in assay [3], 537 ± 33 nM. The A1/A3 in assay [4] is recorded as 1.68. Further, the A2A/A3 in assay [4] amounted to 9.3. Moreover, in assay [4], the “affinity and selectivity” value is “relatively high affinity and selectivity at A3 adenosine receptors”.
Take `CCNC(=O)[C@H]1O[C@@H](n2cnc3c(NC(=O)Nc4cc(C)on4)ncnc32)[C@H](O)[C@@H]1O` [Compound 3k, N^6-(5-methyl-isoxazol-3-yl-carbamoyl)-adenosine-5'-N-ethyluronamide]: the values for the Ki in assay [1] (setting [7]), in assay [2] and in assay [3] were 884 ± 232 nM, 532 ± 240 nM and 146 ± 39 nM, respectively. In addition, the A1/A3 in assay [4] worked out at 0.27. The A2A/A3 in assay [4] is on record as 1.66.
Turning to `CCNC(=O)[C@H]1O[C@@H](n2cnc3c(NC(=O)Nc4nncs4)ncnc32)[C@H](O)[C@@H]1O` [Compound 3l, N^6-(1,3,4-thiadiazol-2-yl-carbamoyl)-adenosine-5'-N-ethyluronamide], the Ki is 917 ± 254 nM in assay [1] (setting [7]), 5550 ± 2800 nM in assay [2] and 208 ± 42 nM in assay [3]. Also, the A1/A3 in assay [4] is reported as 0.037. The A2A/A3 in assay [4] came to 0.16.
Compound `CCCOc1ccc(NC(=O)Nc2ncnc3c2ncn3[C@@H]2O[C@H](C(=O)NCC)[C@@H](O)[C@H]2O)cc1` [Compound 3m, N^6-(4-n-propoxy-phenylcarbamoyl)-adenosine-5'-N-ethyluronamide] had a Ki in assay [6] of 257 ± 43 nM. Moreover, the Ki in assay [2] came to 107 ± 34 nM. In assay [4], the Ki lay within 9.7 to 107 nM; the A1/A3 is 2.3; the A2A/A3 came out at 2.4; the “affinity and selectivity” value is “relatively high affinity and selectivity at A3 adenosine receptors”.
With `CCNC(=O)[C@H]1O[C@@H](n2cnc3c(N(C(=O)Nc4ccc([N+](=O)[O-])cc4)C(=O)Nc4ccc([N+](=O)[O-])cc4)ncnc32)[C@H](O)[C@@H]1O` [Compound 3n, N^6-bis-(4-nitrophenylcarbamoyl)-adenosine-5'-N-ethyluronamide], the inhibition constant (Ki) in assay [1] (setting [7]) amounted to 2530 ± 200 nM; in assay [5], 89.1 ± 8.8 nM.
With `CCNC(=O)[C@H]1O[C@@H](n2cnc3c(N(C(=O)Nc4ccc(Cl)cn4)C(=O)Nc4ccc(Cl)cn4)ncnc32)[C@H](O)[C@@H]1O` [Compound 3o, N^6-bis-(5-chloro-pyridin-2-yl-carbamoyl)-adenosine-5'-N-ethyluronamide], the Ki stood at 799 ± 191 nM in assay [1] (setting [7]), 5700 ± 100 nM in assay [2] and 761 ± 187 nM in assay [3]. In addition, the A1/A3 in assay [4] is recorded as 0.13. Also, in assay [4], the A2A/A3 was 0.14.
In the case of `CNC(=O)[C@H]1O[C@@H](n2cnc3c(NCc4ccc(N)c(I)c4)ncnc32)[C@H](O)[C@@H]1O` [I-AB-MECA, N^6-(4-amino-3-iodobenzyl)adenosine-5'-N-methyluronamide, reference compound], the “effect on binding of [35S]GTP-γ-S” value at rat A3 receptor was “increased binding of [^35 S]GTP-γ-S in a dose dependent manner”.
For `CNC(=O)[C@H]1O[C@@H](n2cnc3c(NCc4cccc(I)c4)ncnc32)[C@H](O)[C@@H]1O` [IB-MECA, N^6-(3-iodobenzyl)adenosine-5'-N-methyluronamide], in the assay on A3 receptor, the behavioral effect result is on record as “induces behavioral depression”. For the same compound, the “protection against cerebral ischemia” value in the assay on A3 receptor (chronic administration) is “protects against cerebral ischemia”.
